From US20100273895A1, “FORMULATIONS OF CANNABIDIOL AND PRODRUGS OF CANNABIDIOL AND METHODS OF USING THE SAME” (AllTranz Inc., priority 2009, published 2010)

Assay: CBD accelerated stability study at 40° C.
Format: physicochemical
Procedure: In order to assess the stability of cannabidiol formulations, the pH rate profiles over a range of probable pHs were studied. The rate profile with the lowest Kdeg would be desirable in order to ensure a two-year shelf life for a cannabidiol gel. The pH ranges studied were 4.0, 5.0, 5.5, 6.0, 6.5 and 7.0 prepared with either an acetate (0.01M: pH 4.0, 5.0 and 5.5) or phosphate (0.01 M: pH 6.0, 6.5 and 7.0) buffer system and maintained at an ionic strength of 0.154 M with NaCl at 40° C. CBD was prepared at 1 mg/mL and analyzed initially at a theoretical 10 μg/ml concentration. The results of these studies appear in FIGS. 13 and 14.
Additional stability studies were conducted with CBD synthesized by alternate routes. […] Over sixty-five days, the purity of CBD is still greater than 99%.

[1] = sixty-five day accelerated stability study at 40° C.

C=C(C)[C@@H]1CCC(C)=C[C@H]1c1c(O)cc(CCCCC)cc1O [CBD, cannabidiol]
28.9 min peak as share of the total area compared to the CBD peak (65 days in a 40° C. chamber): approximately 0.74% | purity of CBD (over sixty-five days): greater than 99% | degradation [1]: no significant degradation | purity remaining [1]: > 98%
